The source of these data is patent US20230339977A1, “SUBSTITUTED HETEROARYL COMPOUND, AND COMPOSITION AND APPLICATION THEREOF” (SUNSHINE LAKE PHARMA CO., LTD., priority 2020, published 2023).

Data set [1] can be described thus: Pharmacokinetic evaluation in rats after intravenous injection and oral administration. The class given is in vivo. The note with it: rat, plasma; for AUC(0-t): read-out: PK AUClast; for Cmax: read-out: PK Cmax; for half-life: read-out: PK T½ (converted). Here is the method:
The analytical LC/MS/MS system includes an Agilent 1200 series vacuum degasser, a binary syringe pump, an orifice plate autosampler, a column oven, and an Agilent G6430 triple quadrupole mass spectrometer with an electrospray ionization (ESI) source.
Agilent XDB-C18, 2.1 × 30 mm, 3.5 µM column was used to analysis, 5 µL sample was injected. Analytical conditions: Mobile phases were 0.1% formic acid in water (A) and 0.1% formic acid in methanol (B). The flow rate was 0.4 mL/min.
In addition, Agilent 6330 series LC/MS/MS spectrometer was used for analysis, equipped with G1312A binary syringe pump, G1367A automatic sampler and G1314C UV detector; LC/MS/MS spectrometer used ESI radiation source. Optimum analysis was achieved using standards with appropriate cation model processing and MRM conversion for each analyte. A Capcell MP-C18 column, 100 × 4.6 mm I.D., 5 µM (Phenomenex, Torrance, California, USA) was used during the analysis. Mobile phase was 5 mM ammonium acetate, 0.1% methanol in water (A): 5 mM ammonium acetate, 0.1% methanol in acetonitrile (B) (70/30, v/v); flow rate was 0.6 mL/min; column temperature was maintained at room temperature; 20 µL of sample was injected.
The present invention evaluates the pharmacokinetic studies of the compounds of the present invention in mice, rats, dogs or monkeys. The compounds of the present invention were administered in the form of aqueous solution or 2% HPMC + 1% Tween-80 aqueous solution, 5% DMSO + 5% saline solution, 4% MC or capsule. For intravenous administration, animals were dosed at about 0.5, 0.6, 1 or 2 mg/kg. The oral doses (p.o.) were 5 or 10 mg/kg for rats and mice, and 10 mg/kg for dogs and monkeys. Bloods (0.3 mL) were taken at time points 0.25, 0.5, 1.0, 2.0, 3.0, 4.0, 6.0, 8.0, 12 and 24 h and centrifuged at 3,000 or 4,000 rpm for 10 min. Plasma solutions were collected and stored at -20° C. or -70° C. until LC/MS/MS analysis as described above. […] Table 2 is the experimental results of the pharmacokinetic characteristics of the compounds provided in the examples of the present invention in rats.

The test system of the next data set is TF-1 cells. The data set is described as follows: Inhibitory effect on TF-1 cell proliferation. The class given is cell-based. The note with it: Homo sapiens, alamar blue, read-out: IC50 (nM) TF-1 (h). As for the experimental part: TF-1 cells were seeded in a 96-well culture plate at a density of 20,000/well with 80 µL per well, the blank well was an equal amount of complete medium, and 10 µL of the compound dilution solution was added to the 96-well plate B1-11, C1-11, E1-11, F1-11, positive and negative wells were added with 5% DMSO medium equal to the volume of the compound, and the final concentration of DMSO was 0.5%. After 30 min, GM-CSF with a final concentration of 2 ng/mL was added to rows B, C, and D (positive wells), and the remaining wells (rows E, F, and G) were added with the same volume of medium as cytokines (negative wells). After incubation for 44 h at 37° C. in 5% CO2, alamar blue was added, the plate was incubated for 4 h, the fluorescence intensity of each well under the conditions of […], 580 nm wavelength was measured, and the IC50 value was calculated.
CTLL-2, P-STAT3 and TF-1 cells were seeded in a 96-well culture plate at a density of 20,000/well with 90 µL per well, and the blank well was an equal amount of complete medium. 10 ul of different compound dilutions were added to each plate row BC, DE, and FG, and 5% DMSO medium with equal volume of the compound was added to positive wells and negative wells, and the final concentration of DMSO was 0.5%. […]

Where two headings read alike, the source gives them in different places.

As to `CC(=O)Nc1cc2c(-c3ccc4c(n3)C3(CCOC3)OC4)cn(C)c2cn1` (centres unmarked) [Example 2, N-(3-(4,5-Dihydro-2H,5′H-Spiro[Furan-3,7′-Furo[3,4-b]Pyridin]-2′-yl)-1-Methyl-1H-Pyrrolo[2,3-c]Pyridin-5-yl)Acetamide], in data set [1] (IV 1 mg/kg), the AUC(0-t) came out at 1140 ng·h/mL, the Cmax turned out to be 1010 ng/mL and the half-life is 0.971 h. Further, in data set [1] (PO 5 mg/kg), the AUC(0-t) was found to be 9430 ng·h/mL, the Cmax amounted to 1990 ng/mL and the half-life is 2.71 h. The bioavailability in data set [1] (oral bioavailability, PO 5 mg/kg) amounted to 165%. In the data set with TF-1 cells, the IC50 came out at 7560 nM.
